{"source": "ChEMBL document CHEMBL1136452", "about": "“Influence of ethylene-oxy spacer group on the activity of linezolid: synthesis of potent antibacterials possessing a thiocarbonyl group” (2003)", "format_in_all_cases": "functional", "key": {"Staphylococcus aureus [1]": {"test_system": "Staphylococcus aureus", "assay": "In vitro antibacterial activity against methicillin-resistant S. a. 019 (Staphylococcus aureus ATCC 33591 )"}, "Staphylococcus aureus [2]": {"test_system": "Staphylococcus aureus", "assay": "In vitro antibacterial activity against S. a. 213 (Staphylococcus. aureus ATCC 49951)"}, "Enterococcus faecalis [3]": {"test_system": "Enterococcus faecalis", "assay": "In vitro antibacterial activity against vancomycin-susceptible E. f. 034 (Enterococcus faecalis ATCC 29212)"}, "Staphylococcus aureus [4]": {"test_system": "Staphylococcus aureus", "assay": "In vitro antibacterial activity against S. a. 035 (Staphylococcus aureus ATCC 29213)"}, "Enterococcus faecium [5]": {"test_system": "Enterococcus faecium", "assay": "In vitro antibacterial activity against vancomycin-resistant Enterococcus faecium 154 (Enterococcus faecium ATCC 12202)"}, "Enterococcus faecalis [6]": {"test_system": "Enterococcus faecalis", "assay": "In vitro antibacterial activity against vancomycin-susceptible E. f. 153 (Enterococcus faecalis ATCC 29212)"}, "Staphylococcus aureus [7]": {"test_system": "Staphylococcus aureus", "assay": "In vitro antibacterial activityd against methicillin-resistant S. a. 019 (Staphylococcus aureus ATCC 33591 )"}, "Enterococcus faecium [8]": {"test_system": "Enterococcus faecium", "assay": "In vitro antibacterial activityd against vancomycin-resistant Enterococcus faecium 154 (Enterococcus faecium ATCC 12202)"}, "Staphylococcus aureus [9]": {"test_system": "Staphylococcus aureus", "assay": "In vitro minimum inhibitory concentration of compound against S. a. 035 (Staphylococcus aureus ATCC 29213)"}}}
{"smiles": "C/C(S)=N/NC[C@H]1CN(c2ccc(OCCN3CCCCC3)c(F)c2)C(=O)O1", "values": [{"measurement": "MIC", "setting": "Staphylococcus aureus [1]", "result": 2, "unit": "µg/mL"}, {"measurement": "MIC", "setting": "Staphylococcus aureus [2]", "result": 8, "unit": "µg/mL"}, {"measurement": "MIC", "setting": "Enterococcus faecalis [3]", "result": 8, "unit": "µg/mL"}, {"measurement": "MIC", "setting": "Staphylococcus aureus [4]", "result": 8, "unit": "µg/mL"}, {"measurement": "MIC", "setting": "Enterococcus faecium [5]", "result": 4, "unit": "µg/mL"}, {"measurement": "MIC", "setting": "Enterococcus faecalis [6]", "result": 4, "unit": "µg/mL"}]}
{"smiles": "CO/C(S)=N/NC[C@H]1CN(c2ccc(OCCN3CCSCC3)c(F)c2)C(=O)O1", "values": [{"measurement": "MIC", "setting": "Staphylococcus aureus [7]", "result": 1, "unit": "µg/mL"}, {"measurement": "MIC", "setting": "Staphylococcus aureus [2]", "result": 4, "unit": "µg/mL"}, {"measurement": "MIC", "setting": "Enterococcus faecalis [3]", "result": 1, "unit": "µg/mL"}, {"measurement": "MIC", "setting": "Staphylococcus aureus [4]", "result": 4, "unit": "µg/mL"}, {"measurement": "MIC", "setting": "Enterococcus faecium [5]", "result": 2, "unit": "µg/mL"}, {"measurement": "MIC", "setting": "Enterococcus faecalis [6]", "result": 2, "unit": "µg/mL"}]}
{"smiles": "CC(=O)NNC[C@H]1CN(c2ccc(OCCO)c(F)c2)C(=O)O1", "values": [{"measurement": "MIC", "setting": "Staphylococcus aureus [7]", "result": 8, "unit": "µg/mL"}, {"measurement": "MIC", "setting": "Enterococcus faecium [8]", "result": 16, "unit": "µg/mL"}, {"measurement": "MIC", "setting": "Enterococcus faecalis [3]", "result": 16, "unit": "µg/mL"}, {"measurement": "MIC", "setting": "Staphylococcus aureus [4]", "result": 8, "unit": "µg/mL"}, {"measurement": "MIC", "setting": "Enterococcus faecalis [6]", "result": 16, "unit": "µg/mL"}]}
{"smiles": "CC(=O)NNC[C@H]1CN(c2ccc(OCCN3CCCC3)cc2)C(=O)O1", "values": [{"measurement": "MIC", "setting": "Staphylococcus aureus [1]", "result": 32, "unit": "µg/mL"}, {"measurement": "MIC", "setting": "Enterococcus faecalis [3]", "result": "> 32", "unit": "µg/mL"}, {"measurement": "MIC", "setting": "Staphylococcus aureus [4]", "result": "> 32", "unit": "µg/mL"}, {"measurement": "MIC", "setting": "Enterococcus faecium [5]", "result": "> 32", "unit": "µg/mL"}, {"measurement": "MIC", "setting": "Enterococcus faecalis [6]", "result": "> 32", "unit": "µg/mL"}]}
{"smiles": "C/C(S)=N/NC[C@H]1CN(c2ccc(OCCN3CCSCC3)c(F)c2)C(=O)O1", "values": [{"measurement": "MIC", "setting": "Staphylococcus aureus [1]", "result": 0.5, "unit": "µg/mL"}, {"measurement": "MIC", "setting": "Staphylococcus aureus [2]", "result": 2, "unit": "µg/mL"}, {"measurement": "MIC", "setting": "Enterococcus faecalis [3]", "result": 1, "unit": "µg/mL"}, {"measurement": "MIC", "setting": "Staphylococcus aureus [4]", "result": 2, "unit": "µg/mL"}, {"measurement": "MIC", "setting": "Enterococcus faecium [5]", "result": 2, "unit": "µg/mL"}, {"measurement": "MIC", "setting": "Enterococcus faecalis [6]", "result": 2, "unit": "µg/mL"}]}
{"smiles": "CC(=O)NNC[C@H]1CN(c2ccc(OCCN3CCSCC3)c(F)c2)C(=O)O1", "values": [{"measurement": "MIC", "setting": "Staphylococcus aureus [1]", "result": 4, "unit": "µg/mL"}, {"measurement": "MIC", "setting": "Staphylococcus aureus [2]", "result": 16, "unit": "µg/mL"}, {"measurement": "MIC", "setting": "Enterococcus faecalis [3]", "result": 16, "unit": "µg/mL"}, {"measurement": "MIC", "setting": "Staphylococcus aureus [4]", "result": 16, "unit": "µg/mL"}, {"measurement": "MIC", "setting": "Enterococcus faecium [5]", "result": 4, "unit": "µg/mL"}, {"measurement": "MIC", "setting": "Enterococcus faecalis [6]", "result": 16, "unit": "µg/mL"}]}
{"smiles": "CC(=O)NNC[C@H]1CN(c2ccc(OCCOCc3ccccc3)c(F)c2)C(=O)O1", "values": [{"measurement": "MIC", "setting": "Enterococcus faecium [8]", "result": 32, "unit": "µg/mL"}, {"measurement": "MIC", "setting": "Staphylococcus aureus [1]", "result": 8, "unit": "µg/mL"}, {"measurement": "MIC", "setting": "Enterococcus faecalis [3]", "result": 32, "unit": "µg/mL"}, {"measurement": "MIC", "setting": "Staphylococcus aureus [4]", "result": 16, "unit": "µg/mL"}, {"measurement": "MIC", "setting": "Enterococcus faecalis [6]", "result": 32, "unit": "µg/mL"}]}
{"smiles": "C/C(S)=N/NC[C@H]1CN(c2ccc(OCCN3CCOCC3)c(F)c2)C(=O)O1", "values": [{"measurement": "MIC", "setting": "Staphylococcus aureus [1]", "result": 1, "unit": "µg/mL"}, {"measurement": "MIC", "setting": "Staphylococcus aureus [2]", "result": 2, "unit": "µg/mL"}, {"measurement": "MIC", "setting": "Staphylococcus aureus [9]", "result": 2, "unit": "µg/mL"}, {"measurement": "MIC", "setting": "Enterococcus faecalis [3]", "result": 2, "unit": "µg/mL"}, {"measurement": "MIC", "setting": "Enterococcus faecium [5]", "result": 2, "unit": "µg/mL"}, {"measurement": "MIC", "setting": "Enterococcus faecalis [6]", "result": 2, "unit": "µg/mL"}]}
{"smiles": "CO/C(S)=N/NC[C@H]1CN(c2ccc(OCCN3CCOCC3)c(F)c2)C(=O)O1", "values": [{"measurement": "MIC", "setting": "Staphylococcus aureus [1]", "result": 2, "unit": "µg/mL"}, {"measurement": "MIC", "setting": "Staphylococcus aureus [2]", "result": 4, "unit": "µg/mL"}, {"measurement": "MIC", "setting": "Enterococcus faecalis [3]", "result": 2, "unit": "µg/mL"}, {"measurement": "MIC", "setting": "Staphylococcus aureus [4]", "result": 4, "unit": "µg/mL"}, {"measurement": "MIC", "setting": "Enterococcus faecium [5]", "result": 2, "unit": "µg/mL"}, {"measurement": "MIC", "setting": "Enterococcus faecalis [6]", "result": 4, "unit": "µg/mL"}]}
{"smiles": "CC(=O)NNC[C@H]1CN(c2ccc(OCCN3CCOCC3)cc2)C(=O)O1", "values": [{"measurement": "MIC", "setting": "Staphylococcus aureus [1]", "result": "> 32", "unit": "µg/mL"}, {"measurement": "MIC", "setting": "Enterococcus faecalis [3]", "result": "> 32", "unit": "µg/mL"}, {"measurement": "MIC", "setting": "Staphylococcus aureus [4]", "result": "> 32", "unit": "µg/mL"}, {"measurement": "MIC", "setting": "Enterococcus faecium [5]", "result": "> 32", "unit": "µg/mL"}, {"measurement": "MIC", "setting": "Enterococcus faecalis [6]", "result": "> 32", "unit": "µg/mL"}]}
{"smiles": "CC(=O)NNC[C@H]1CN(c2ccc(OCCN3CCCCC3)cc2)C(=O)O1", "values": [{"measurement": "MIC", "setting": "Staphylococcus aureus [1]", "result": "> 32", "unit": "µg/mL"}, {"measurement": "MIC", "setting": "Enterococcus faecalis [3]", "result": "> 32", "unit": "µg/mL"}, {"measurement": "MIC", "setting": "Staphylococcus aureus [4]", "result": "> 32", "unit": "µg/mL"}, {"measurement": "MIC", "setting": "Enterococcus faecium [5]", "result": "> 32", "unit": "µg/mL"}, {"measurement": "MIC", "setting": "Enterococcus faecalis [6]", "result": "> 32", "unit": "µg/mL"}]}
{"smiles": "CC(=O)NNC[C@H]1CN(c2ccc(OCCN3CCCCC3)c(F)c2)C(=O)O1", "values": [{"measurement": "MIC", "setting": "Staphylococcus aureus [1]", "result": 32, "unit": "µg/mL"}, {"measurement": "MIC", "setting": "Staphylococcus aureus [2]", "result": 64, "unit": "µg/mL"}, {"measurement": "MIC", "setting": "Enterococcus faecalis [3]", "result": 64, "unit": "µg/mL"}, {"measurement": "MIC", "setting": "Staphylococcus aureus [4]", "result": 64, "unit": "µg/mL"}, {"measurement": "MIC", "setting": "Enterococcus faecium [5]", "result": 64, "unit": "µg/mL"}, {"measurement": "MIC", "setting": "Enterococcus faecalis [6]", "result": 64, "unit": "µg/mL"}]}
{"smiles": "CC(=O)NNC[C@H]1CN(c2ccc(OCCN3CCOCC3)c(F)c2)C(=O)O1", "values": [{"measurement": "MIC", "setting": "Staphylococcus aureus [1]", "result": 4, "unit": "µg/mL"}, {"measurement": "MIC", "setting": "Staphylococcus aureus [2]", "result": 16, "unit": "µg/mL"}, {"measurement": "MIC", "setting": "Enterococcus faecalis [3]", "result": 16, "unit": "µg/mL"}, {"measurement": "MIC", "setting": "Staphylococcus aureus [4]", "result": 16, "unit": "µg/mL"}, {"measurement": "MIC", "setting": "Enterococcus faecium [5]", "result": 4, "unit": "µg/mL"}, {"measurement": "MIC", "setting": "Enterococcus faecalis [6]", "result": 16, "unit": "µg/mL"}]}
{"smiles": "CC(=O)NC[C@H]1CN(c2ccc(N3CCOCC3)c(F)c2)C(=O)O1", "note": "[LINEZOLID]", "values": [{"measurement": "MIC", "setting": "Staphylococcus aureus [1]", "result": 1, "unit": "µg/mL"}, {"measurement": "MIC", "setting": "Enterococcus faecium [5]", "result": 2, "unit": "µg/mL"}]}
{"smiles": "CN[C@H](CC(C)C)C(=O)N[C@H]1C(=O)N[C@@H](CC(N)=O)C(=O)N[C@H]2C(=O)N[C@H]3C(=O)N[C@H](C(=O)N[C@H](C(=O)O)c4cc(O)cc(O)c4-c4cc3ccc4O)[C@H](O)c3ccc(c(Cl)c3)Oc3cc2cc(c3O[C@@H]2O[C@H](CO)[C@@H](O)[C@H](O)[C@H]2O[C@H]2C[C@](C)(N)[C@H](O)[C@H](C)O2)Oc2ccc(cc2Cl)[C@H]1O", "note": "[VANCOMYCIN]", "values": [{"measurement": "MIC", "setting": "Enterococcus faecalis [3]", "result": 2, "unit": "µg/mL"}, {"measurement": "MIC", "setting": "Enterococcus faecium [5]", "result": "> 32", "unit": "µg/mL"}, {"measurement": "MIC", "setting": "Enterococcus faecalis [6]", "result": "> 32", "unit": "µg/mL"}]}
